{"source": "patent US20110237538A1", "about": "“TREATMENT OF LYSOSOMAL STORAGE DISORDERS AND OTHER PROTEOSTATIC DISEASES” (SUMMIT CORPORATION PLC, priority 2008, published 2011)", "key": {"[1]": {"target": "T1, wild type (wt) lysosomal alpha-glucosidase (Homo sapiens, UniProt P10253)", "T1 construct": "The lysates were used as a source for wild type (wt) lysosomal alpha-glucosidase; endogenous in cells; host or cells: HL60 (ECACC No. 98070106) lysate", "test": "alpha-glucosidase activity assay in HL60 lysate (4MU-α-D-glc);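 further: fluorometric rate of 4MU product release read at 360 nm excitation and 450 nm emission, reactions run at 37 °C in citric phosphate buffer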", "format": "biochemical", "details": "at a concentration of 100 uM, 0.5 mM 4MU-α-D-glc, pH 4.5"}, "[2]": {"target": "T2, wild type (wt) beta-glucocerebrosidase (Homo sapiens, UniProt P04062)", "T2 construct": "The lysates were used as a source for wild type (wt) beta-glucocerebrosidase; endogenous in cells; host or cells: HL60 (ECACC No. 98070106) lysate", "T2 sequence (P04062 40-536)": "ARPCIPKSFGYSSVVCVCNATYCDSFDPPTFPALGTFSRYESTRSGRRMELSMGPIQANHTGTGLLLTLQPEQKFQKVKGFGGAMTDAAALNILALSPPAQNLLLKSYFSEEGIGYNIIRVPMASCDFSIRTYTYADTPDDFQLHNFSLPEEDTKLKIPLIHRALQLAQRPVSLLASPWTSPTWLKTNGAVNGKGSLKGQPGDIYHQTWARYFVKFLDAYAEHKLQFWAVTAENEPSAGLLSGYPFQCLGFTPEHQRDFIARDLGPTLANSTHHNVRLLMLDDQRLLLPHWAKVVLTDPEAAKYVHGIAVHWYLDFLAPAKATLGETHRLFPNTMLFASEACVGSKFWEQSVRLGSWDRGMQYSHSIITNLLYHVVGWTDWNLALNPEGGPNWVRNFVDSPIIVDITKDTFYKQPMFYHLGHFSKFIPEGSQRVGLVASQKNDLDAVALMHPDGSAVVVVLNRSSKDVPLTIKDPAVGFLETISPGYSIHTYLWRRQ", "test": "beta-glucocerebrosidase activity assay in HL60 lysate (4MU-β-D-glc);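 further: fluorometric read-out of 4MU liberated from the substrate (ex 360 nm, em 450 nm) after 37 °C incubation, reaction stopped with sodium carbonate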", "format": "biochemical", "details": "at a concentration of 100 μM, 0.5 mM 4MU-β-D-glc"}}}
{"smiles": "O[C@H]1[C@H](O)[C@@H](O)CN2CC[C@H](O)[C@H]12", "note": "[Compound 104, (1S,6S,7R,8R,8aR)-octahydroindolizine-1,6,7,8-tetraol]", "values": [{"measurement": "inhibition at 100 µM", "setting": "[1]", "result": "> 50", "unit": "%"}, {"measurement": "inhibition at 100 µM", "setting": "[2]", "result": "> 50", "unit": "%"}]}
{"smiles": "OCCCCCCCCCN1C[C@H](O)[C@@H](O)[C@H](O)[C@H]1CO", "note": "[Compound 724, (2R,3R,4R,5S)-2-(hydroxymethyl)-1-(9-hydroxynonyl)piperidine-3,4,5-triol]", "values": [{"measurement": "inhibition at 100 µM", "setting": "[1]", "result": "> 50", "unit": "%"}, {"measurement": "inhibition at 100 µM", "setting": "[2]", "result": "> 50", "unit": "%"}]}
{"smiles": "OC[C@@H]1[C@@H](O)[C@H](O)[C@@H](CO)N1CCCOc1ccccc1", "note": "[Compound 343, (2R,3R,4R,5R)-2,5-bis(hydroxymethyl)-1-(3-phenoxypropyl)pyrrolidine-3,4-diol]", "values": [{"measurement": "inhibition at 100 µM", "setting": "[1]", "result": "> 50", "unit": "%"}, {"measurement": "inhibition at 100 µM", "setting": "[2]", "result": "> 50", "unit": "%"}]}
{"smiles": "OCC1OC(CO)(O[C@H]2[C@H](O)[C@H](O)[C@H](CO)N[C@@H]2CO)C(O)C1O", "note": "(stereo partly drawn) [Compound 77, (2S,3R,4R,5R,6R)-5-(3,4-dihydroxy-2,5-bis(hydroxymethyl)tetrahydrofuran-2-yloxy)-2,6-bis(hydroxymethyl)piperidine-3,4-diol]", "values": [{"measurement": "inhibition at 100 µM", "setting": "[2]", "result": "> 50", "unit": "%"}]}
{"smiles": "CCCCNC(=O)C1N[C@@H](C)[C@H](O)[C@@H](O)[C@H]1O", "note": "(stereo partly drawn) [Compound 265, (3S,4R,5S,6S)-N-butyl-3,4,5-trihydroxy-6-methylpiperidine-2-carboxamide]", "values": [{"measurement": "inhibition at 100 µM", "setting": "[2]", "result": "> 50", "unit": "%"}]}
{"smiles": "OC[C@@H]1[C@@H](O)[C@H](O)[C@@H](O)CN1CCCOc1ccccc1", "note": "[Compound 288, (2R,3R,4R,5S)-2-(hydroxymethyl)-1-(3-phenoxypropyl)piperidine-3,4,5-triol]", "values": [{"measurement": "inhibition at 100 µM", "setting": "[1]", "result": "> 50", "unit": "%"}, {"measurement": "inhibition at 100 µM", "setting": "[2]", "result": "> 50", "unit": "%"}]}
{"smiles": "OC[C@@H]1[C@@H](O)[C@H](O)[C@@H](O)CN1Cc1ccc(-c2ccccc2)cc1", "note": "[Compound 524, (2R,3R,4R,5S)-1-(biphenyl-4-ylmethyl)-2-(hydroxymethyl)piperidine-3,4,5-triol]", "values": [{"measurement": "inhibition at 100 µM", "setting": "[1]", "result": "> 50", "unit": "%"}, {"measurement": "inhibition at 100 µM", "setting": "[2]", "result": "> 50", "unit": "%"}]}
{"smiles": "CCCCN1C[C@H](CO)[C@@H](O)[C@H](O)C1", "note": "[Compound 419, (3R,4R,5R)-1-butyl-5-(hydroxymethyl)piperidine-3,4-diol]", "values": [{"measurement": "inhibition at 100 µM", "setting": "[2]", "result": "> 50", "unit": "%"}]}
{"smiles": "OC[C@@H]1CNC[C@H](O)[C@H]1O", "note": "[Compound 641, (3S,4S,5S)-5-(hydroxymethyl)piperidine-3,4-diol]", "values": [{"measurement": "inhibition at 100 µM", "setting": "[2]", "result": "> 50", "unit": "%"}]}
{"smiles": "CN1C[C@H](O)[C@@H](O)[C@H](O)[C@H]1CO", "note": "[Compound 3, (2R,3R,4R,5S)-2-(hydroxymethyl)-1-methylpiperidine-3,4,5-triol]", "values": [{"measurement": "inhibition at 100 µM", "setting": "[1]", "result": "> 50", "unit": "%"}, {"measurement": "inhibition at 100 µM", "setting": "[2]", "result": "> 50", "unit": "%"}]}
{"smiles": "OCCN1C[C@@H](CO)[C@H](O)[C@@H](O)C1", "note": "[Compound 640, (3S,4S,5S)-1-(2-hydroxyethyl)-5-(hydroxymethyl)piperidine-3,4-diol]", "values": [{"measurement": "inhibition at 100 µM", "setting": "[2]", "result": "> 50", "unit": "%"}]}
{"smiles": "OC1C[C@@]2(O)N[C@@H]1C[C@H](O)[C@H]2O", "note": "(stereo partly drawn) [Compound 43, (1S,2R,3S,5R)-8-azabicyclo[3.2.1]octane-1,2,3,6-tetraol]", "values": [{"measurement": "inhibition at 100 µM", "setting": "[2]", "result": "> 50", "unit": "%"}]}
{"smiles": "CCCCCCCCCN1[C@H](CO)[C@@H](O)[C@H](O)[C@H]1CO", "note": "[Compound 555, (2R,3R,4R,5R)-2,5-bis(hydroxymethyl)-1-nonylpyrrolidine-3,4-diol]", "values": [{"measurement": "inhibition at 100 µM", "setting": "[2]", "result": "> 50", "unit": "%"}]}
{"smiles": "O=C(NC[C@@H]1[C@@H](O)[C@@H](O)CN1Cc1ccc(-c2ccccc2)cc1)c1ccccc1", "note": "[Compound 649, N-(((2R,3R,4S)-1-(biphenyl-4-ylmethyl)-3,4-dihydroxypyrrolidin-2-yl)methyl)benzamide]", "values": [{"measurement": "inhibition at 100 µM", "setting": "[2]", "result": "> 50", "unit": "%"}]}
{"smiles": "OCCCCCCCCCN1[C@H](CO)[C@@H](O)[C@H](O)[C@H]1CO", "note": "[Compound 557, (2R,3R,4R,5R)-2,5-bis(hydroxymethyl)-1-(9-hydroxynonyl)pyrrolidine-3,4-diol]", "values": [{"measurement": "inhibition at 100 µM", "setting": "[2]", "result": "> 50", "unit": "%"}]}
{"smiles": "OC[C@@H]1[C@@H](O)[C@H](O)[C@@H](CO)N1CCOCc1ccccc1", "note": "[Compound 556, (2R,3R,4R,5R)-1-(2-(benzyloxy)ethyl)-2,5-bis(hydroxymethyl)pyrrolidine-3,4-diol]", "values": [{"measurement": "inhibition at 100 µM", "setting": "[1]", "result": "> 50", "unit": "%"}, {"measurement": "inhibition at 100 µM", "setting": "[2]", "result": "> 50", "unit": "%"}]}
{"smiles": "OC[C@@H]1[C@@H](O)[C@H](O)CN1CCCOc1ccccc1", "note": "[Compound 349, (2R,3R,4R)-2-(hydroxymethyl)-1-(3-phenoxypropyl)pyrrolidine-3,4-diol]", "values": [{"measurement": "inhibition at 100 µM", "setting": "[2]", "result": "> 50", "unit": "%"}]}
{"smiles": "C[C@@H]1CCC[C@@H]2[C@@H](O)[C@@H](O)[C@@H](CO)N12", "note": "[Compound 60, (1R,2S,3R,5R,8aR)-3-(hydroxymethyl)-5-methyloctahydroindolizine-1,2-diol]", "values": [{"measurement": "inhibition at 100 µM", "setting": "[2]", "result": "> 50", "unit": "%"}]}
{"smiles": "O=C(O)CN1C[C@@H](CO)[C@H](O)[C@@H](O)C1", "note": "[Compound 451, 2-((3S,4S,5S)-3,4-dihydroxy-5-(hydroxymethyl)piperidin-1-yl)acetic acid]", "values": [{"measurement": "inhibition at 100 µM", "setting": "[2]", "result": "> 50", "unit": "%"}]}
{"smiles": "OC[C@H]1[C@@H](O)[C@H](O)CN1CC1CCCCC1", "note": "[Compound 320, (2S,3R,4R)-1-(cyclohexylmethyl)-2-(hydroxymethyl)pyrrolidine-3,4-diol]", "values": [{"measurement": "inhibition at 100 µM", "setting": "[2]", "result": "> 50", "unit": "%"}]}
{"smiles": "CCCCCCCCCN1C[C@@H](O)[C@H](O)[C@H]1CO", "note": "[Compound 568, (2R,3R,4R)-2-(hydroxymethyl)-1-nonylpyrrolidine-3,4-diol]", "values": [{"measurement": "inhibition at 100 µM", "setting": "[2]", "result": "> 50", "unit": "%"}]}
{"smiles": "CC(O)CC[C@@H]1[C@@H](O)C[C@@H]2[C@H](O)[C@H](O)[C@@H](CO)N21", "note": "(stereo partly drawn) [Compound 66, (1S,2R,3R,5R,6S,7aR)-5-(3-hydroxybutyl)-3-(hydroxymethyl)hexahydro-1H-pyrrolizine-1,2,6-triol]", "values": [{"measurement": "inhibition at 100 µM", "setting": "[2]", "result": "> 50", "unit": "%"}]}
{"smiles": "NC[C@H]1[C@@H](O)[C@@H](O)CN1Cc1ccc(-c2ccccc2)cc1", "note": "[Compound 686, (2S,3R,4S)-2-(aminomethyl)-1-(biphenyl-4-ylmethyl)pyrrolidine-3,4-diol]", "values": [{"measurement": "inhibition at 100 µM", "setting": "[2]", "result": "> 50", "unit": "%"}]}
{"smiles": "OCC1OC(O[C@@H]2[C@@H](O)[C@H](O)[C@]3(O)CC[C@H]2N3)C(O)C(O)C1O", "note": "(stereo partly drawn) [Compound 105, (1R,2S,3S,4S,5R)-4-(3,4,5-trihydroxy-6-(hydroxymethyl)tetrahydro-2H-pyran-2-yloxy)-8-azabicyclo[3.2.1]octane-1,2,3-triol]", "values": [{"measurement": "inhibition at 100 µM", "setting": "[2]", "result": "> 50", "unit": "%"}]}
{"smiles": "CCCCCCCCCN1C[C@@H](O)[C@H](O)[C@H](O)[C@@H](O)C1", "note": "[Compound 736, (3R,4S,5R,6S)-1-nonylazepane-3,4,5,6-tetraol]", "values": [{"measurement": "inhibition at 100 µM", "setting": "[2]", "result": "> 50", "unit": "%"}]}
{"smiles": "OC[C@H]1[C@@H](O)[C@H](O)[C@H]2[C@H](O)[C@@H](O)CN21", "note": "[Compound 129, (1R,2R,3S,6S,7S,7aR)-3-(hydroxymethyl)hexahydro-1H-pyrrolizine-1,2,6,7-tetraol]", "values": [{"measurement": "inhibition at 100 µM", "setting": "[2]", "result": "> 50", "unit": "%"}]}
{"smiles": "OC[C@@H]1[C@@H](O)[C@H](O)[C@@H]2[C@@H](O)CCN21", "note": "[Compound 17, (1R,2R,3R,7S,7aS)-3-(hydroxymethyl)hexahydro-1H-pyrrolizine-1,2,7-triol]", "values": [{"measurement": "inhibition at 100 µM", "setting": "[2]", "result": "> 50", "unit": "%"}]}
{"smiles": "OC[C@H]1CNC[C@@H](O)[C@@H]1O", "note": "[Compound 279, (3R,4R,5R)-5-(Hydroxymethyl)-3,4-piperidinediol]", "values": [{"measurement": "inhibition at 100 µM", "setting": "[2]", "result": "> 50", "unit": "%"}]}
{"smiles": "O=C(CCCCO)CCCCCCC[C@@H](O)[C@H]1N[C@H](CO)[C@@H](O)[C@@H]1O", "note": "[Compound 226, (R)-13-((2R,3R,4R,5R)-3,4-dihydroxy-5-(hydroxymethyl)pyrrolidin-2-yl)-1,13-dihydroxytridecan-5-one]", "values": [{"measurement": "inhibition at 100 µM", "setting": "[2]", "result": "> 50", "unit": "%"}]}
{"smiles": "C[C@@H]1NC(C(=O)NCc2ccccc2)[C@H](O)[C@H](O)[C@H]1O", "note": "(stereo partly drawn) [Compound 267, (3S,4R,5S,6S)-N-benzyl-3,4,5-trihydroxy-6-methylpiperidine-2-carboxamide]", "values": [{"measurement": "inhibition at 100 µM", "setting": "[2]", "result": "> 50", "unit": "%"}]}
